Measurements as given in article PMC6887723, “Design and Synthesis of 4-(Heterocyclic Substituted Amino)-1H-Pyrazole-3-Carboxamide Derivatives and Their Potent Activity against Acute Myeloid Leukemia (AML)” (International Journal of Molecular Sciences, 2019).

What was measured:
ALK = target: T1, ALK (Homo sapiens, UniProt Q9UM73); assay: Hot-Spot kinase profiling; type: biochemical; details: read-out: % Enzyme Activity (Relative to DMSO Controls) ALK
T1 construct: purchased Reaction Biology Corp. (HotSpot kinase assay)
Experimental: (§1) Activities of kinases were determined using Hot-SpotSM kinase assay which was performed by Reaction Biology Corp. (Malvern PA, USA) as described previously.

Aurora A = target: T2, Aurora A (Homo sapiens, UniProt O14965); assay: Hot-Spot kinase profiling; type: biochemical; details: read-out: % Enzyme Activity (Relative to DMSO Controls) Aurora A
T2 construct: purchased Reaction Biology Corp. (HotSpot kinase assay)
Experimental: as §1

Aurora B = target: T3, Aurora B (Homo sapiens, UniProt Q96GD4); assay: Hot-Spot kinase profiling; type: biochemical; details: read-out: % Enzyme Activity (Relative to DMSO Controls) Aurora B
T3 construct: purchased Reaction Biology Corp. (HotSpot kinase assay)
Experimental: as §1

BRAF = target: T4, BRAF (Homo sapiens, UniProt P15056); assay: Hot-Spot kinase profiling; type: biochemical; details: read-out: % Enzyme Activity (Relative to DMSO Controls) BRAF
T4 construct: purchased Reaction Biology Corp. (HotSpot kinase assay)
Experimental: as §1

BTK = target: T5, BTK (Homo sapiens, UniProt Q06187); assay: Hot-Spot kinase profiling; type: biochemical; details: read-out: % Enzyme Activity (Relative to DMSO Controls) BTK
T5 construct: purchased Reaction Biology Corp. (HotSpot kinase assay)
Experimental: as §1

CDK1/cyclin B = target: T6, CDK1/cyclin B (Homo sapiens, UniProt P06493); assay: Hot-Spot kinase profiling; type: biochemical
T6 construct: purchased Reaction Biology Corp
Experimental: as §1

CDK4/cyclin D1 = target: T7, CDK4/cyclin D1 (Homo sapiens, UniProt P11802); assay: Hot-Spot kinase profiling; type: biochemical
T7 construct: purchased Reaction Biology Corp
Experimental: as §1

CDK5/p35 = target: T8, CDK5/p35 (Homo sapiens, UniProt Q00535); assay: Hot-Spot kinase profiling; type: biochemical
T8 construct: purchased Reaction Biology Corp
Experimental: as §1

CDK9/cyclin K = target: T9, CDK9/cyclin K (Homo sapiens, UniProt P50750); assay: Hot-Spot kinase profiling; type: biochemical
T9 construct: purchased Reaction Biology Corp
Experimental: as §1

CHK2 = target: T10, CHK2 (Homo sapiens, UniProt O96017); assay: Hot-Spot kinase profiling; type: biochemical; details: read-out: % Enzyme Activity (Relative to DMSO Controls) CHK2
T10 construct: purchased Reaction Biology Corp. (HotSpot kinase assay)
Experimental: as §1

FLT3 (D835Y) = target: T11, FLT3 (D835Y) (Homo sapiens, UniProt P36888, D835Y); assay: Hot-Spot kinase profiling; type: biochemical
T11 construct: purchased Reaction Biology Corp
Experimental: as §1

FLT3 (ITD)-NPOS = FLT3 (ITD)-NPOS (Homo sapiens, UniProt P36888, ITD); assay: Hot-Spot kinase profiling; type: biochemical
Experimental: as §1

FLT3 (ITD)-W51 = target: T12, FLT3 (ITD)-W51 (Homo sapiens, UniProt P36888, DUP595-601); assay: Hot-Spot kinase profiling; type: biochemical
T12 construct: purchased Reaction Biology Corp
Experimental: as §1

[1] = target: T13, FLT3 (Y591-V592insVDFREYEYD) (Homo sapiens, UniProt P36888, INS591VDFREYEYD); assay: Hot-Spot kinase profiling; type: biochemical
T13 construct: purchased Reaction Biology Corp
Experimental: as §1

FLT4/VEGFR3 = target: T14, FLT4/VEGFR3 (Homo sapiens, UniProt P35916); assay: Hot-Spot kinase profiling; type: biochemical
T14 construct: purchased Reaction Biology Corp
Experimental: as §1

FMS = target: T15, FMS (Homo sapiens, UniProt P07333); assay: Hot-Spot kinase profiling; type: biochemical; details: read-out: % Enzyme Activity (Relative to DMSO Controls) FMS
T15 construct: purchased Reaction Biology Corp
Experimental: as §1

JAK2 = target: T16, JAK2 (Homo sapiens, UniProt O60674); assay: Hot-Spot kinase profiling; type: biochemical; details: read-out: % Enzyme Activity (Relative to DMSO Controls) JAK2
T16 construct: purchased Reaction Biology Corp
Experimental: as §1

KDR/VEGFR2 = target: T17, KDR/VEGFR2 (Homo sapiens, UniProt P35968); assay: Hot-Spot kinase profiling; type: biochemical
T17 construct: purchased Reaction Biology Corp. (Malvern PA, USA)
Experimental: as §1

786-0 = assay: NCI60 screening; type: cell-based; details: Homo sapiens, Renal Cancer panel
Excerpt: (§2) With these findings, we submitted compound 8t to National Cancer Institute (NCI) to evaluate their antitumor efficacy against 60 human cancer cell lines.

ACHN = assay: NCI60 screening; type: cell-based; details: Homo sapiens, Renal Cancer panel
Excerpt: as §2

DU-145 = assay: NCI60 screening; type: cell-based; details: Homo sapiens, Prostate Cancer panel
Excerpt: as §2

HCT-116 = assay: NCI60 screening; type: cell-based; details: Homo sapiens, Colon Cancer panel
Excerpt: as §2

HT29 = assay: NCI60 screening; type: cell-based; details: Homo sapiens, HT-29; Colon Cancer panel
Excerpt: as §2

LOX IMVI = assay: NCI60 screening; type: cell-based; details: Homo sapiens, Melanoma panel
Excerpt: as §2

MDA-MB-468 = assay: NCI60 screening; type: cell-based; details: Homo sapiens, Breast Cancer panel
Excerpt: as §2

NCI-H226 = assay: NCI60 screening; type: cell-based; details: Homo sapiens, Non-Small Cell Lung Cancer panel
Excerpt: as §2

NCI-H522 = assay: NCI60 screening; type: cell-based; details: Homo sapiens, Non-Small Cell Lung Cancer panel
Excerpt: as §2

SF-295 = assay: NCI60 screening; type: cell-based; details: Homo sapiens, CNS Cancer panel
Excerpt: as §2

SK-MEL-28 = assay: NCI60 screening; type: cell-based; details: Homo sapiens, Melanoma panel
Excerpt: as §2

SK-MEL-5 = assay: NCI60 screening; type: cell-based; details: Homo sapiens, Melanoma panel
Excerpt: as §2

TK-10 = assay: NCI60 screening; type: cell-based; details: Homo sapiens, Renal Cancer panel
Excerpt: as §2

T6 sequence (P06493 whole entry): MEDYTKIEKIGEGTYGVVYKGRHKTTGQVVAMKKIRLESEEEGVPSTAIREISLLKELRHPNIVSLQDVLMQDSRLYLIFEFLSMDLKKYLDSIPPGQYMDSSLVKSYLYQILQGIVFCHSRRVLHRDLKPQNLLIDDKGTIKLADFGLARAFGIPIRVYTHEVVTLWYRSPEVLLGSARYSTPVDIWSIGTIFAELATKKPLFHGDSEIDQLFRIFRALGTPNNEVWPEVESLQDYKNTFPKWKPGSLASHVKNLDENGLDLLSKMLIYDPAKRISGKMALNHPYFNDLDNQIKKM
T6 sequence (P14635 whole entry partner): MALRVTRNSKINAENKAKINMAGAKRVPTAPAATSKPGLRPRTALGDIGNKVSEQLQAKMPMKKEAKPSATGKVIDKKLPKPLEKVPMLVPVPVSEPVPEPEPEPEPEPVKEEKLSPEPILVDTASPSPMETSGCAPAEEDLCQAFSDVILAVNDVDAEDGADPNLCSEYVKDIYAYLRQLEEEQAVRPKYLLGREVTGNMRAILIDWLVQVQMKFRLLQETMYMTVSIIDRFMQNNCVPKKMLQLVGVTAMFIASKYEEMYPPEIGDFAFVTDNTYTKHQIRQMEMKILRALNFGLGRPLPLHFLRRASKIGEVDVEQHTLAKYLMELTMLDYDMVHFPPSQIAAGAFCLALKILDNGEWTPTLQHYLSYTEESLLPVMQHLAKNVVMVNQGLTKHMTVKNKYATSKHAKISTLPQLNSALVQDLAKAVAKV
T7 sequence (P11802 whole entry): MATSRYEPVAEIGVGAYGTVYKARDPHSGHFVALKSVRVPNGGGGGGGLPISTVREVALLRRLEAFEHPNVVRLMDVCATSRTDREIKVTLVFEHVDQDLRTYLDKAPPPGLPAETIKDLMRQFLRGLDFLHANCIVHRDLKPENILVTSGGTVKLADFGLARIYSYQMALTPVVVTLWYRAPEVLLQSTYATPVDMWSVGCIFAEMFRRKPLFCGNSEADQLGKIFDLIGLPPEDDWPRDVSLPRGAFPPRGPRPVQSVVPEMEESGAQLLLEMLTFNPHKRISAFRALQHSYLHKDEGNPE
T7 sequence (P24385 whole entry partner): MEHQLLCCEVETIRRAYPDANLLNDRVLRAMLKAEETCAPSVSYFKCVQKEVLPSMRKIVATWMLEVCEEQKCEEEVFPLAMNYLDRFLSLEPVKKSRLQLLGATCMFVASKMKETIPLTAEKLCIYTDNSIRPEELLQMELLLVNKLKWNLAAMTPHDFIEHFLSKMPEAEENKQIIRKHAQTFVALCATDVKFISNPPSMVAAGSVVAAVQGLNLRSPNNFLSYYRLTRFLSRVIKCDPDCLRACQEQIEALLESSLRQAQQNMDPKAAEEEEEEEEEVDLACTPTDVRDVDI
T17 sequence (P35968 20-1356): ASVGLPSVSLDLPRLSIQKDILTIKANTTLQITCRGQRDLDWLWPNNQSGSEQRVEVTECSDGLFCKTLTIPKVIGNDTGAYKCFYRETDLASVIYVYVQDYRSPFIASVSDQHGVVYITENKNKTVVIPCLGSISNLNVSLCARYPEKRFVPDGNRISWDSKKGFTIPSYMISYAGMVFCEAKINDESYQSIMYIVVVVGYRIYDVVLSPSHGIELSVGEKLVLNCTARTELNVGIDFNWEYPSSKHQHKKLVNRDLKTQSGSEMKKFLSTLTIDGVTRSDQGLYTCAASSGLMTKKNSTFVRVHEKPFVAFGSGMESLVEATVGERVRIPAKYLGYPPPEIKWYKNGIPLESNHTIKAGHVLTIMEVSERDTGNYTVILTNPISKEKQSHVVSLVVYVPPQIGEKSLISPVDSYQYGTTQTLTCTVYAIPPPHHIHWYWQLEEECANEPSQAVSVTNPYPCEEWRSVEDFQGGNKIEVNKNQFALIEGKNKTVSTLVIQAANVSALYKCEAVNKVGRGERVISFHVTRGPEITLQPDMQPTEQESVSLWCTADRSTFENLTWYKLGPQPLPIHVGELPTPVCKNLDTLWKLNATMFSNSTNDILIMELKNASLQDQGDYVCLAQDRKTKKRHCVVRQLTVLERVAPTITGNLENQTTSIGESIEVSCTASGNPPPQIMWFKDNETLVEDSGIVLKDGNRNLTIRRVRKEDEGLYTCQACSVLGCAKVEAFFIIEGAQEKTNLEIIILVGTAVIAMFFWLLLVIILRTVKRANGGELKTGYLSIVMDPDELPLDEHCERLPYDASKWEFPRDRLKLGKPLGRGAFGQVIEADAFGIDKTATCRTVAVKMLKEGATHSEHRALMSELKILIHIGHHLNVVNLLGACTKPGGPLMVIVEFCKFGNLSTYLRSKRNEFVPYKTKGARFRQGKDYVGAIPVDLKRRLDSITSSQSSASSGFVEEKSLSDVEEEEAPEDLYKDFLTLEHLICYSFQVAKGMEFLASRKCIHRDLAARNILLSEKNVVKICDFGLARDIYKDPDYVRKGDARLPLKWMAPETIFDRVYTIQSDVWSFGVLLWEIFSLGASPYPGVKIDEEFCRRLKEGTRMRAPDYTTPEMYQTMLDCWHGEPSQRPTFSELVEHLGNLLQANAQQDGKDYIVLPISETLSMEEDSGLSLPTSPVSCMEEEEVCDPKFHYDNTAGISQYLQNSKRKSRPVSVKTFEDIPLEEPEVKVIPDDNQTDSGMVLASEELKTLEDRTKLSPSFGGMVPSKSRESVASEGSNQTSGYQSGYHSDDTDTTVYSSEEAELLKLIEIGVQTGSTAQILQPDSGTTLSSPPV
T8 sequence (Q00535 whole entry): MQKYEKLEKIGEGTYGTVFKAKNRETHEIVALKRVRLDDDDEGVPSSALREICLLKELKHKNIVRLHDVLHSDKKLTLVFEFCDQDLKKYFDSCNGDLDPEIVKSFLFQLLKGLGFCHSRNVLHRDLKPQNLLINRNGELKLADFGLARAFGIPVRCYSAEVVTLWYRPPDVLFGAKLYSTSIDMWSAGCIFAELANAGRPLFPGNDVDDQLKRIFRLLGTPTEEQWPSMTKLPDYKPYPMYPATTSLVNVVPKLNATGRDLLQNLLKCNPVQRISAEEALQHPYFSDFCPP
T8 sequence (Q15078 whole entry partner): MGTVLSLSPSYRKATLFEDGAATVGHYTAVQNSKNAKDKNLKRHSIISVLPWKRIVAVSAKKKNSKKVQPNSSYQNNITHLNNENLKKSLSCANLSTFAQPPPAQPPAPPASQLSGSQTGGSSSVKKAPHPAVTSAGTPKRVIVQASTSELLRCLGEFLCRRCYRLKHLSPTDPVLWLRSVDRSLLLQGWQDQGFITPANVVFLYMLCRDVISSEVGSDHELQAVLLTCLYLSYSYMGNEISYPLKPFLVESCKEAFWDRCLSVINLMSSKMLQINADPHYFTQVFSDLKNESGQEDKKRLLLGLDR
T9 sequence (P50750 whole entry): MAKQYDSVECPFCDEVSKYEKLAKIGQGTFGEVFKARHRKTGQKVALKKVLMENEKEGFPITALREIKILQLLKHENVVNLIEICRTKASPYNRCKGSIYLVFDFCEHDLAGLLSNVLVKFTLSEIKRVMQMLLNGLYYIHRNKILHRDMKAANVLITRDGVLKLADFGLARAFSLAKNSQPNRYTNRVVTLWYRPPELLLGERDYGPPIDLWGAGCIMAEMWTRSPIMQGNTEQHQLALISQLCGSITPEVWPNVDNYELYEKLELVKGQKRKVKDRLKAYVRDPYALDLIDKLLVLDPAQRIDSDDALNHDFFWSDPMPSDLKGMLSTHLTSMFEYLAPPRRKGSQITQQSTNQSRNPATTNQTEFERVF
T9 sequence (O75909 whole entry partner): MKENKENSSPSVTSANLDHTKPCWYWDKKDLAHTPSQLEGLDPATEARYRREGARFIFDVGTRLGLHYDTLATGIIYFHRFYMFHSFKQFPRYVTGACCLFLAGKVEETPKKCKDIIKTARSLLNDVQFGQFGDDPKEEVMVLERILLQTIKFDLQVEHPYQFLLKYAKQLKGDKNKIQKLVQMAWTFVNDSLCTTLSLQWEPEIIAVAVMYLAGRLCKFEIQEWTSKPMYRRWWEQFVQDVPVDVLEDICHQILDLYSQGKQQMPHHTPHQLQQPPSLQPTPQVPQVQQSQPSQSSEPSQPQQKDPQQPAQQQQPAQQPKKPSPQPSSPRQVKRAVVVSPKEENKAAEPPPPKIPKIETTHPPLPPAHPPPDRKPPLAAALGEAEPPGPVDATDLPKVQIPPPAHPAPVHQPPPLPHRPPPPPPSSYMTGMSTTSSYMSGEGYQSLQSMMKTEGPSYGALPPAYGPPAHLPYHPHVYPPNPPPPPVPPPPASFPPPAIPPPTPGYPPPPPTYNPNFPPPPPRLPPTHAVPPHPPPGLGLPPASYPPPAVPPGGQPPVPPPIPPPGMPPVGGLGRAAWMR
T3 sequence (Q96GD4 whole entry): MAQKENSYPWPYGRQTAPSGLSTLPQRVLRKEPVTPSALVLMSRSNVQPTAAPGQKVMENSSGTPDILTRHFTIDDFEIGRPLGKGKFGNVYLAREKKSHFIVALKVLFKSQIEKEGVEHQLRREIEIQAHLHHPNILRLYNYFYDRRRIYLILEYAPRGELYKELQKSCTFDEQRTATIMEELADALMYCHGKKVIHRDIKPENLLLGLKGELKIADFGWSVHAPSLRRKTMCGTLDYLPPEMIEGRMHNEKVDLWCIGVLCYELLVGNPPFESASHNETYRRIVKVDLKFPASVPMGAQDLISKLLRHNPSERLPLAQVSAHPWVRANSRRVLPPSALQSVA
T2 sequence (O14965 whole entry): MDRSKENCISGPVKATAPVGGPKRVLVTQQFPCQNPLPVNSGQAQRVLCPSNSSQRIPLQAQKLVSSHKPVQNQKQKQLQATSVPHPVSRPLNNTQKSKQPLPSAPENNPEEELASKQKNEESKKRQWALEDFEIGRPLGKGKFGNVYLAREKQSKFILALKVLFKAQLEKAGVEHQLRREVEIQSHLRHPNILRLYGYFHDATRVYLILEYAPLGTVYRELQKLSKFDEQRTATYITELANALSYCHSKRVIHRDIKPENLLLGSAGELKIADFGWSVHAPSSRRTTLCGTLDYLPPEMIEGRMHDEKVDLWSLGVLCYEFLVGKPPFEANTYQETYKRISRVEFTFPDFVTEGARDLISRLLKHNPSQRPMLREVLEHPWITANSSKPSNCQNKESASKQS

remaining activity at 0.15 µM (ALK): 16.6%
remaining activity at 0.15 µM (Aurora A): 38%
remaining activity at 0.15 µM (Aurora B): 55.3%
remaining activity at 0.15 µM (BRAF): 77.6%
remaining activity at 0.15 µM (BTK): 97.1%
remaining activity at 0.15 µM (CDK1/cyclin B; 0.15 μM, read-out: % Enzyme Activity (Relative to DMSO Controls) CDK1/cyclin B): 18.2%
IC50 (CDK1/cyclin B; Table 5 kinase profiling): 138 ± 1.24 nM
remaining activity at 0.15 µM (CDK4/cyclin D1; 0.15 μM, read-out: % Enzyme Activity (Relative to DMSO Controls) CDK4/cyclin D1): 1.56%
IC50 (CDK4/cyclin D1; Table 5 kinase profiling): 0.78 ± 0.04 nM
remaining activity at 0.15 µM (CDK5/p35; 0.15 μM, read-out: % Enzyme Activity (Relative to DMSO Controls) CDK5/p35): 9.6%
IC50 (CDK5/p35; Table 5 kinase profiling): 9.64 ± 0.81 nM
remaining activity at 0.15 µM (CDK9/cyclin K; 0.15 μM, read-out: % Enzyme Activity (Relative to DMSO Controls) CDK9/cyclin K): 7.2%
IC50 (CDK9/cyclin K; Table 5 kinase profiling): 14.2 ± 0.82 nM
remaining activity at 0.15 µM (CHK2): 38.4%
remaining activity at 0.15 µM (FLT3 (D835Y); 0.15 μM, read-out: % Enzyme Activity (Relative to DMSO Controls) FLT3 (D835Y)): 0.27%
IC50 (FLT3 (D835Y); Table 5 kinase profiling): 0.75 ± 0.04 nM
remaining activity at 0.15 µM (FLT3 (ITD)-NPOS; 0.15 μM, read-out: % Enzyme Activity (Relative to DMSO Controls) FLT3 (ITD)-NPOS): 1.38%
IC50 (FLT3 (ITD)-NPOS; Table 5 kinase profiling): 4.32 ± 0.23 nM
remaining activity at 0.15 µM (FLT3 (ITD)-W51; 0.15 μM, read-out: % Enzyme Activity (Relative to DMSO Controls) FLT3 (ITD)-W51): 0.51%
IC50 (FLT3 (ITD)-W51; Table 5 kinase profiling): 0.94 ± 0.09 nM
IC50 ([1]; Table 5 kinase profiling, read-out: IC50 FLT3 (Y591-V592ins[…])): 0.66 ± 0.08 nM
remaining activity at 0.15 µM ([1]; read-out: % Enzyme Activity (Relative to DMSO Controls) FLT3 (Y591-V592insVDFREYEYD), 0.15 μM, read-out: % Enzyme Activity (Relative to DMSO Controls) FLT3 (Y591-V592ins[…])): 0.54%
remaining activity at 0.15 µM (FLT4/VEGFR3; 0.15 μM, read-out: % Enzyme Activity (Relative to DMSO Controls) FLT4/VEGFR3): 3.62%
IC50 (FLT4/VEGFR3; Table 5 kinase profiling): 4.16 ± 0.19 nM
remaining activity at 0.15 µM (FMS): 63%
remaining activity at 0.15 µM (JAK2): 32%
remaining activity at 0.15 µM (KDR/VEGFR2; 0.15 μM, read-out: % Enzyme Activity (Relative to DMSO Controls) KDR/VEGFR2): 7.29%
IC50 (KDR/VEGFR2; Table 5 kinase profiling): 8.32 ± 0.54 nM
SMILES: O=C(Nc1ccc(N2CCNCC2)cc1)c1n[nH]cc1Nc1ncnc2sc3c(c12)CCC3 [Compound 8t]
GI50 (786-0): 360 nM
GI50 (ACHN): 160 nM
GI50 (DU-145): 300 nM
GI50 (HCT-116): 110 nM
GI50 (HT29): 260 nM
GI50 (LOX IMVI): 200 nM
GI50 (MDA-MB-468): 420 nM
GI50 (NCI-H226): 320 nM
GI50 (NCI-H522): 210 nM
GI50 (SF-295): 270 nM
GI50 (SK-MEL-28): 1130 nM
GI50 (SK-MEL-5): 250 nM
GI50 (TK-10): 470 nM
